Source: patent US10076527B2, “Standardized extract and its use in the manufacture of a medicament” (priority 2006, dated 2018)

Tests used:
[1] = test system: anesthetized dogs; conditions: intravenous injection; cited from earlier work
[2] = test system: conscious dogs; conditions: intravenous injection; cited from earlier work
[3] = test system: conscious cats; conditions: intravenous injection; cited from earlier work
[4] = test system: isolated guinea pig ileum; conditions: concentration of 54 mg/ml; cited from earlier work
[5] = test system: mice with gastrointestinal hypo-function induced by atropine; assay: Intestine enterokinesia in mice with gastrointestinal hypo-function induced by atropine; assay type: in vivo, ICR mice; conditions: extract high dose rectal; Neostigmine 0.15 mg/kg hypodermic
Method: In this experiment, 66 male ICR mice weighing 22-26 g respectively were divided randomly into 6 groups with 11 per group. They were fasted for 24 hours before the experiment. The 6 groups were named as: • Normal control group, • Model group, • Positive control group, and • The three dose groups.
The mice in the normal control group were only injected saline at 0.1 ml/10 g and mice in all other groups were injected 0.25 mg/kg of Atropine hypodermic at 0.1 ml/10 g body weight.
Twenty minutes after injection Muskmelon-Base extract (diluted with the saline) was given to the mice at the doses of […] by rectal administration and saline solution was given to the mice in normal, control and the model groups. Neostigmine hypodermic injection (0.15 mg/kg) was given to the mice in the positive control group at the dose 0.1 ml/10 g body weight. A further 20 minutes later, an intragastric administration of 10% ink was given to all the mice at the dose 0.2 ml/10 g body weight.
All the mice were killed and laparotomized in 90 minutes. The intestine from the pylorus to the anus was taken out to measure the whole length of the alimentary tract. The distance from the pylorus to the front the ink impelled was measured to calculate the impelling percentage.

[6] = test system: normal mice; assay: Excretion promotion study in normal mice (India ink); assay type: in vivo, ICR mice; conditions: positive control, hypodermic injection 0.1 ml/10 g, p<0.01
Method: In this experiment, 50 male ICR mice weighing 23-27 g respectively were divided randomly into 5 groups with 10 per group, i.e. normal control, positive control and three dose groups at 2.48 mg/kg, 4.96 mg/kg and 9.92 mg/kg, respectively. They were fasted for 24 hours before the experiment.
The mice in the positive control group were given an injection of 0.1 ml/10 g body weight of Neostigmine hypodermically while the mice in the normal control groups were given rectal administrations of saline of 0.02 ml/10 g body weight. The mice in the three dose groups were given rectal administrations of the Muskmelon-Base extract (diluted with saline to give desired doses and given 0.02 ml/10 g body weight).
After medication, all the mice were intra-gastrically given infusions of India ink (10% ink, diluted with saline, at the dose 0.02 ml/10 g of body weight). The mice were individually put into a cage with white filter paper flooring. The time of excretion and quantity of the feces were recorded during 4-hour observation periods.

Compound | enterokinesia [1] | diarrhea [2] | diarrhea [3] | effect on isolated guinea pig ileum [4] | muscle spasm side effect [5] | quantity of the feces increased vs normal control ([6]; 4-hour observation) | duration for the first excretion of black feces shortened vs normal control [6]
CC(C)(O)/C=C/C(=O)[C@](C)(O)[C@H]1[C@H](O)C[C@@]2(C)[C@@H]3CC=C4[C@@H](C[C@H](O)C(=O)C4(C)C)[C@]3(C)C(=O)C[C@]12C [Cucurbitacin D] | stimulated enterokinesia | induced diarrhea | induced diarrhea | did not cause any visible effect |  |  | 
CN(C)C(=O)Oc1cccc([N+](C)(C)C)c1 [Neostigmine] |  |  |  |  | always found in all mice | 49% | 53%
